# Tested on: dopaminergic neurons
# Assay: MPTP Model of Parkinson's Disease in Mice
# Type: in vivo
# Details: recovery of TH-stained dopaminergic neurons in striatum; MPTP 30 mg/kg i.p. 5 days; test compound 4 mg/kg s.c., concurrent dosing paradigm
# Description: MPTP lesioning of dopaminergic neurons in mice is used as an animal model of Parkinson's Disease. Four week old male CD1 white mice are dosed i.p. with 30 mg/kg of MPTP for 5 days. Test compounds (4 mg/kg), or vehicle, are administered s.c. along with the MPTP for 5 days, as well as for an additional […] following cessation of MPTP treatment. At 18 days following MPTP treatment, the animals are sacrificed and the striata dissected and perfusion-fixed. Immunostaining is performed on saggital and coronal brain sections using anti-tyrosine hydroxylase […] to quantitate survival and recovery of dopaminergic neurons. In animals treated with MPTP and vehicle, a substantial loss of functional dopaminergic terminals is observed as compared to non-lesioned animals. Lesioned animals receiving test compounds show a significant recovery of TH-stained dopaminergic neurons. This model presents quantitation for the recovery of TH-positive dopaminergic neurons in the striatum of animals receiving the compounds of the present invention. […]
# Percent striatal innervation density was quantitated in brain sections with an anti-tyrosine hydroxylase immunoglobulin, which is indicative of functional dopaminergic neurons. […]
smiles,measurement,value
"CCC(C)(C)C(=O)C(=O)N1CCS[C@H]1C(=O)O [Compound L, (2S) -1-(3,3-dimethyl-1,2-dioxopentyl) -3-thiazolidine-2-carboxylic acid]",% Recovery,14.0%
